Measurements as given in US20060281763A1, “Carboxamide inhibitors of TGFbeta” (priority 2005, published 2006).
Where two headings read alike, the source gives them in different places.

Target: T1, TGFβ R1 (Homo sapiens, UniProt P36897)
T1 sequence (P36897 34-503): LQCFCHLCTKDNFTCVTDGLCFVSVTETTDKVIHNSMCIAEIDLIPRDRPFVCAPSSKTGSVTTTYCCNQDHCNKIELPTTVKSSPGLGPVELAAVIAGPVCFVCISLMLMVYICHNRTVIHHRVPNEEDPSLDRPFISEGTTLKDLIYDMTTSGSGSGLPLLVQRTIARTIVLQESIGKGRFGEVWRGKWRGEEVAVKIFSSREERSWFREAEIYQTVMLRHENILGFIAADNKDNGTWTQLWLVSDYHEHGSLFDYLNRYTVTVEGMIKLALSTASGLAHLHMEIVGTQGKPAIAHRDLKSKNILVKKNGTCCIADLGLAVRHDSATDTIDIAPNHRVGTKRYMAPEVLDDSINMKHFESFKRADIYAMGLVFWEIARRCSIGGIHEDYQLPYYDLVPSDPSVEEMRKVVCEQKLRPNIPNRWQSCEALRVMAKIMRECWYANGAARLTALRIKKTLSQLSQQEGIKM
Assay: TGFβ R1 autophosphorylation protocol (33P-ATP, phosphocellulose filter plate)
Format: biochemical
Conditions: 10 uM ATP, read-out: IC50 for Kinase Inhibition
How it was run: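 Radiometric autophosphorylation: 170 nM enzyme with compound (≤1% DMSO), 10 uM ATP plus γ-33P-ATP, […] in 20 mM MOPS pH 7, 20 min at room temperature. Reaction stopped on phosphocellulose filter, washed with H3PO4 and ethanol, counted by scintillation.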

[1] = 170 nM TGFβ R1, 20 minutes at room temperature
[2] = 170 nM TGFβ R1, room temperature 20 minutes

Row | SMILES | IC50 [1] | IC50 [2]
1 | COc1cnc(-c2cc(Cl)ccc2F)nc1Nc1ccncc1C(=O)NCCNCCC1O[C@H](CO)[C@@H](O)[C@H](O)[C@H]1O (stereo partly shown) [Compound 136, 4-[2-(5-Chloro-2-fluoro-phenyl)-5-methoxy-pyrimidin-4-ylamino]-N-{2-[2-(3,4,5-trihydroxy-6-hydroxymethyl-tetrahydro-pyran-2-yl)-ethylamino]-ethyl}-nicotinamide] | 7 nM | –
2 | COc1cnc(-c2cc(Cl)ccc2F)nc1Nc1ccncc1C(=O)NCCCN(C(=O)CC1O[C@H](CO)[C@@H](O)[C@H](O)[C@H]1O)C(C)C (stereo partly shown) [Compound 149, 4-[2-(5-Chloro-2-fluoro-phenyl)-5-methoxy-pyrimidin-4-ylamino]-N-(3-[isopropyl-[2-(3,4,5-trihydroxy-6-hydroxymethyl-tetrahydro-pyran-2-yl)-acetyl]-amino]-propyl)-nicotinamide] | 47 nM | –
3 | COc1cnc(-c2cc(Cl)ccc2F)nc1Nc1ccncc1C(=O)NCCNCCOC1O[C@H](COC(C)=O)[C@@H](OC(C)=O)[C@H](OC(C)=O)[C@H]1OC(C)=O (stereo partly shown) [Compound 142, Acetic acid 3,4,5-triacetoxy-6-(2-[2-({4-[2-(5-chloro-2-fluoro-phenyl)-5-methoxy-pyrimidin-4-ylamino]-pyridine-3-carbonyl]-amino)-ethylamino]-ethoxy}tetrahydro-pyran-2-ylmethyl ester] | 10 nM | –
4 | CCCN(CCC)C(=O)C(=O)c1cnccc1Nc1nc(-c2cc(Cl)ccc2F)ncc1OC [Compound 240, 2-{4-[2-(5-Chloro-2-fluoro-phenyl)-5-methoxy-pyrimidin-4-ylamino]-pyridin-3-yl}-2-oxo-N,N-dipropyl-acetamide] | – | 3080 nM
5 | CC(C)c1cnc(-c2cc(Cl)ccc2F)nc1Nc1ccncc1C(=O)N[C@H](C(N)=O)[C@@H](C)O [Compound 85, N-(1-Carbamoyl-2-hydroxy-propyl)-4-[2-(5-chloro-2-fluoro-phenyl)-5-isopropyl-pyrimidin-4-ylamino]-nicotinamide] | 3960 nM | –
6 | CCOC(=O)CNC(=O)c1cnccc1Nc1nc(-c2cc(Cl)ccc2F)ncc1OC [Compound 1, ({4-[2-(5-Chloro-2-fluoro-phenyl)-5-methoxy-pyrimidin-4-ylamino]pyridine-3-carbonyl}-amino)-acetic acid ethyl ester] | 40 nM | –
7 | COc1cnc(-c2cc(Cl)ccc2F)nc1Nc1ccncc1C(=O)N1CC[C@H](F)C1 [Compound 220, {4-[2-(5-Chloro-2-fluoro-phenyl)-5-methoxy-pyrimidin-4-ylamino]-pyridin-3-yl}-(3-fluoro-pyrrolidin-1-yl)-methanone] | – | 249 nM
8 | CCOP(=O)(OCC)O[C@@H](C)CNC(=O)c1cnccc1Nc1nc(-c2cc(Cl)ccc2F)ncc1OC [Compound 121, Phosphoric acid 2-({4-[2-(5-chloro-2-fluoro-phenyl)-5-methoxy-pyrimidin-4-ylamino]-pyridine-3-carbonyl}-amino)-1-methyl-ethyl ester diethyl ester] | 5770 nM | –
9 | COc1cnc(-c2cc(Cl)ccc2F)nc1Nc1ccncc1C(=O)NCCCNC(=O)C(C)C [Compound 95, 4-[2-(5-Chloro-2-fluoro-phenyl)-5-methoxy-pyrimidin-4-ylamino]-N-(3-isobutylylamino-propyl)-nicotinamide] | 170 nM | –
10 | COc1cnc(-c2cc(Cl)ccc2F)nc1Nc1ccncc1C(=O)N[C@@H]1CCOC1=O [Compound 62, 4-[2-(5-Chloro-2-fluoro-phenyl)-5-methoxy-pyrimidin-4-ylamino]-N-(2-oxo-tetrahydro-furan-3-yl)-nicotinamide] | 360 nM | –
11 | CC(C)c1cnc(-c2cc(Cl)ccc2F)nc1Nc1ccncc1C(=O)N[C@@H]1CCC[C@H]1OCc1ccccc1 (stereo in doubt) [Compound 222, N-(2-Benzyloxy-cyclopentyl)-4-[2-(5-chloro-2-fluoro-phenyl)-5-isopropyl-pyrimidin-4-ylamino]-nicotinamide] | – | 7700 nM
12 | CNC(=O)[C@@H]1CCCCN1CCCNC(=O)c1cnccc1Nc1nc(-c2cc(Cl)ccc2F)ncc1C(C)C [Compound 184, 4-[2-(5-Chloro-2-fluoro-phenyl)-5-isopropyl-pyrimidin-4-ylamino]-N-[3-(2-methylcarbamoyl-piperidin-1-yl)-propyl}-nicotinamide] | – | 12 nM
13 | COc1cnc(-c2cc(Cl)ccc2F)nc1Nc1ccncc1C(=O)NCC(=O)O [Compound 2, ({4-[2-(5-Chloro-2-fluoro-phenyl)-5-methoxy-pyrimidin-4-ylamino]-pyridine 3-carbonyl}-amino)-acetic acid] | 920 nM | –
14 | COc1cnc(-c2cc(Cl)ccc2F)nc1Nc1ccncc1C(=O)NCCCNC(=O)CC1O[C@H](CO)[C@@H](O)[C@H](O)[C@H]1O (stereo partly shown) [Compound 146] | 102 nM | –
15 | COc1cnc(-c2cc(Cl)ccc2F)nc1Nc1ccncc1C(=O)NCCNCCOC1O[C@H](CO)[C@@H](O)[C@H](O)[C@H]1O (stereo partly shown) [Compound 144, 4-[2-(5-chloro-2-fluoro-phenyl)-5-methoxy-pyrimidin-4-ylamino]-N-{2-[2-(3,4,5-trihydroxy-6-hydroxymethyl-tetrahydro-pyran-2-yloxy)-ethylamino]-ethyl)-nicotinamide] | 10 nM | –
16 | COc1cnc(-c2cc(Cl)ccc2F)nc1Nc1ccncc1C(=O)NCCCN1CCOCC1 [Compound 9, 4-[2-(5-Chloro-2-fluoro-phenyl)-5-methoxy-pyrimidin-4-ylamino]-N-(3-morpholin-4-yl-propyl)-nicotinamide] | 30 nM | –
17 | CCNC(=O)[C@@H]1CCCN1CCCNC(=O)c1cnccc1Nc1nc(-c2cc(Cl)ccc2F)ncc1OC [Compound 167, 4-[2-(5-Chloro-2-fluoro-phenyl)-5-methoxy-pyrimidin-4-ylamino]-N-[3-(2-ethylcarbamoyl-pyrrolidin-1-yl)-propyl]-nicotinamide] | – | 28 nM
18 | COc1cnc(-c2cc(Cl)ccc2F)nc1Nc1ccncc1C(=O)C(=O)N(C)C [Compound 239, 2-{4-[2-(5-Chloro-2-fluoro-phenyl)-5-methoxy-pyrimidin-4-ylamino]-pyridin-3-yl]-N,N-dimethyl-2-oxo-acetamide] | – | 7740 nM
19 | CC(C)c1cnc(-c2cc(Cl)ccc2F)nc1Nc1ccncc1C(=O)NC1CCN(C)CC1 [Compound 178, 4-[2-(5-Chloro-2-fluoro-phenyl)-5-isopropyl-pyrimidin-4-ylamino]-N-(1-methyl-piperidin-4-yl)-nicotinamide] | – | 3 nM
20 | COc1cnc(-c2cc(Cl)ccc2F)nc1Nc1ccncc1C(=O)NCCNC(=O)COC1O[C@H](COC(C)=O)[C@@H](OC(C)=O)[C@H](OC(C)=O)[C@H]1OC(C)=O (stereo partly shown) [Compound 143, Acetic acid 3,4,5-triacetoxy-6-{[2-({4-[2-(5-chloro-2-fluoro-phenyl)-5-methoxy-pyrimidin-4-ylamino]-pyridine-3-carbonyl}-amino)-ethylcarbamoyl]-methoxy}-tetrahydro-pyran-2-ylmethyl ester] | 183 nM | –
21 | COc1cnc(-c2cc(Cl)ccc2F)nc1Nc1ccncc1C(=O)NCCNc1ccccc1 [Compound 71, 4-[2-(5-Chloro-2-fluoro-phenyl)-5-methoxy-pyrimidin-4-ylamino]-N-(2-phenylamino-ethyl)-nicotinamide] | 760 nM | –
22 | COc1cnc(-c2cc(Cl)ccc2F)nc1Nc1ccncc1C(=O)NCC(C)(C)N [Compound 130, N-(2-Amino-2-methyl-propyl)-4-[2-(5-chloro-2-fluoro-phenyl)-5-methoxy-pyrimidin-4-ylamino]-nicotioamide] | 38 nM | –
23 | CC(C)c1cnc(-c2cc(Cl)ccc2F)nc1Nc1ccncc1C(=O)N1CC[C@@H](F)C1 [Compound 210, {4-[2-(5-Chloro-2-fluoro-phenyl)-5-isopropyl-pyrimidin-4-ylamino]-pyridin-3-yl}-(3-fluoro-pyrrolidin-1-yl)-methanone] | – | 121 nM
24 | CC(C)c1cnc(-c2cc(Cl)ccc2F)nc1Nc1ccncc1C(=O)NCCCN1CCC[C@@H]1C(=O)N(C)C [Compound 181, 4-[2-(5-Chloro-2-fluoro-phenyl)-5-isopropyl-pyrimidin-4-ylamino]-N-[3-(2-dimethylcarbamoyl-pyrrolidin-1-yl)-propyl]-nicotinamide] | – | 6 nM
25 | CC(C)c1cnc(-c2cc(Cl)ccc2F)nc1Nc1ccncc1C(=O)N[C@H]1CCC[C@@H]1O [Compound 83, 4-[2-(5-Chloro-2-fluoro-phenyl)-5-isopropyl-pyrimidin-4-ylamino)-N-(2-hydroxy-cyclopentyl)-nicotinamide] | 230 nM | –
26 | COc1cnc(-c2cc(Cl)ccc2F)nc1Nc1ccncc1C(=O)NCCCNCCO[C@H]1O[C@H](CO)[C@H](O)[C@H](O)[C@H]1O [Compound 139, 4-[2-(5-Chloro-2-fluoro-phenyl)-5-methoxy-pyrimidin-4-ylamino]-N-{3-[2-(3,4,5-trihydroxy-6-hydroxymethyl-tetrahydro-pyran-2-yloxy)-ethylamino]-propyl}-nicotinamide] | 7 nM | –
27 | NC(=O)c1cnccc1Nc1nc(-c2cc(Cl)ccc2F)ncc1Cl [Compound 91, 4-[5-Chloro-2-(5-chloro-2-fluoro-phenyl)-pyrimidin-4-ylamino]-nicotinamide] | 200 nM | –
28 | CC(O)CNC(=O)c1c[n+]([O-])ccc1Nc1nc(-c2cc(Cl)ccc2F)ncc1C(C)C (stereo not shown) [Compound 198, 4-[2-(5-Chloro-2-fluoro-phenyl)-5-isopropyl-pyrimidin-4-ylamino]-N-(2-hydroxy-propyl)-1-oxy-nicotinamide] | – | 148 nM
